Source: ChEMBL document CHEMBL1122462, “Potential antiatherosclerotic agents. 4. [(Functionalized-alkyl)amino]benzoic acid analogues of cetaben” (1983)
“And” between values parts separate entries of the source, which are not always exact repeats. Equal entries are not always repeated.

Legend:
[1] = biological target: T1, Sterol O-acyltransferase 1 (Rattus norvegicus) (UniProt O70536); assay: In vitro inhibitory activity against acyl coenzyme A:cholesterol acyltransferase; design: concentration or dose not given beside the values; settings: concentration not given here
T1 sequence (whole entry): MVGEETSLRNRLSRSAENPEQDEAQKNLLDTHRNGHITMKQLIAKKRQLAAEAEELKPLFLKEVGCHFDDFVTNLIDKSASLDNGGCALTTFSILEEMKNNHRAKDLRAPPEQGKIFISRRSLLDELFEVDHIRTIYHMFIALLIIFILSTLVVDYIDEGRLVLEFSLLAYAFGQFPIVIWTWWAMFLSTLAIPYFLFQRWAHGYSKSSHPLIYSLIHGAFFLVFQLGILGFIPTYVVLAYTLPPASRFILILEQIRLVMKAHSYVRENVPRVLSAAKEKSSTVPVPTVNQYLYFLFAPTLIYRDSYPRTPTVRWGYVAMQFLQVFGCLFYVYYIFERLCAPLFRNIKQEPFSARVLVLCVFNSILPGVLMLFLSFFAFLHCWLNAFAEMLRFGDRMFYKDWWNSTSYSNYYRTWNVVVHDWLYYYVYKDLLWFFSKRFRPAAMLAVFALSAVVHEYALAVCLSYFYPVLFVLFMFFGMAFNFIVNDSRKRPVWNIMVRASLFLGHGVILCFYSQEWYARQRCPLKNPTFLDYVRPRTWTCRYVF

Rattus norvegicus [2] = assay: In vivo Triglyceride lowering activity at a dose of 0.10 % of the diet; assay type: functional
Rattus norvegicus [3] = assay: In vivo Sterol lowering activity at dose as 0.10 % of the diet.; assay type: functional
Rattus norvegicus [4] = assay: In vivo sterol lowering activity, dosed as 0.03 % of the diet; assay type: functional
Rattus norvegicus [5] = assay: In vivo Triglyceride lowering activity at dose as 0.01 % of the diet.; assay type: functional
Rattus norvegicus [6] = assay: In vivo Sterol lowering activity at dose as 0.01 % of the diet.; assay type: functional
Rattus norvegicus [7] = assay: In vivo Triglyceride lowering activity at dose as 0.03 % of the diet.; assay type: functional
Rattus norvegicus [8] = assay: In vivo Triglyceride lowering activity at dose as 0.10 % of the diet.; assay type: functional
Rattus norvegicus [9] = assay: In vivo Sterol lowering activity at dose as 0.03 % of the diet.; assay type: functional
Rattus norvegicus [10] = assay: In vivo sterol lowering activity at dose of 0.10 % of the diet; assay type: functional
Rattus norvegicus [11] = assay: In vivo Triglyceride lowering activity at dose as 0.03 % of the diet; assay type: functional
Rattus norvegicus [12] = assay: In vivo Triglyceride lowering activity at dose as 0.01 % of the diet; assay type: functional
Rattus norvegicus [13] = assay: In vivo Sterol lowering activity at dose as 0.01% of the diet; assay type: functional

Row | Compound | inhibition [1] | serum triglyceride level (% of control) (Rattus norvegicus [2]) | Diet (Rattus norvegicus [3]) | serum sterol level, percent of control (Rattus norvegicus [4]) | Diet (Rattus norvegicus [5]) | Diet (Rattus norvegicus [6]) | Diet (Rattus norvegicus [7]) | Diet (Rattus norvegicus [8]) | Diet (Rattus norvegicus [9]) | serum sterol level, % of control (Rattus norvegicus [10]) | triglyceride lowering activity (Rattus norvegicus [11]) | serum triglyceride level (% of control) (Rattus norvegicus [12]) | serum sterol level, percent of control (Rattus norvegicus [13])
1 | CCOC(=O)c1ccc(NCCC2CCCC2)cc1 | 60% | 69% | 96% |  |  |  |  |  |  |  |  |  | 
2 | CCCC(Nc1ccc(C(=O)O)cc1)C(=O)O (stereo not drawn) | 0% |  |  | 87% | 93% | 95% | 74% |  |  |  |  |  | 
3 | O=C(O)CCCNc1ccc(C(=O)O)cc1 | 0% |  | 99% |  |  |  |  | 86% |  |  |  |  | 
4 | CCOC(=O)CCCNc1ccc(C(=O)OCC)cc1 | 11% |  | 93% |  |  |  |  | 103% |  |  |  |  | 
5 | N#CCCCNc1ccc(C(=O)O)cc1 | 8% |  | 94% |  |  |  |  | 93% |  |  |  |  | 
6 | O=C(O)c1ccc(NCCC2CCCC2)cc1 |  | 64% | 88% |  | 78% | 92% | 83% |  | 94% |  |  |  | 
7 | CCOC(=O)c1ccc(N2CCCC2=O)cc1 | 6% |  |  |  |  |  |  | 72% |  | 84% |  |  | 
8 | O=C(O)c1ccc(NCC2CCCCC2)cc1 | 1% | 62% |  | 84% |  | 95% |  |  |  | 83% | 71% | 73% | 
9 | CCSCCCCCCCCCCCCCCCCNc1ccc(C(=O)O)cc1 | < 36% | <59% |  | 91% |  |  |  |  |  | 88% | <58% | 62% | 91%
10 | O=C(O)c1ccc(NCCCCCCCCCCCOc2ccc(C(=O)O)cc2)cc1 | < 36% | 91% |  | 91% |  |  |  |  |  | 103% | 79% | 90% | 103%
11 | O=C(O)c1ccc(NCCCCCCCCCCCSCc2ccccc2)cc1 | < 54% | <51% |  | 95% |  |  |  |  |  | 90% | <52% | <55% | 99%
12 | O=C(O)CCNc1ccc(C(=O)O)cc1 | 6% and 0% | 72% | 100% |  | 97% | 101% | 108% |  | 118% |  |  |  | 
13 | CCCCCCCCCCC(=O)CCCCCNc1ccc(C(=O)O)cc1 | 18% | <46% |  | 90% |  |  |  |  |  | <84% | <68% | <63% | 95%
14 | CCCCCCCCCCCCCCCC(=O)Nc1ccc(C(=O)O)cc1 | 16% | 105% |  | 118% |  |  |  |  |  | 112% | 94% | 103% | 111%
15 | O=C(O)c1ccc(NCC(F)(F)C(F)(F)C(F)(F)C(F)(F)C(F)(F)C(F)(F)C(F)(F)F)cc1 | < 42% | <31% |  | <66% |  |  |  |  |  | <59% | <40% | <51% | <87%
16 | NC(=O)CNc1ccc(C(=O)O)cc1 | 17% |  | 100% |  |  |  |  | 102% |  |  |  |  | 
17 | CCCCCCCCCCCCCCCCNc1ccc(C(=O)O)cc1 [CETABEN] | < 57% | <31% |  | <71% |  |  |  |  |  | <54% | <45% | <71% | <72%
18 | CCCCCCCCCCC(C#N)CCCCCNc1ccc(C(=O)O)cc1 (stereo not drawn) | < 64% | <50% |  | <85% |  |  |  |  |  | 83% | <66% | 75% | 96%
19 | CCCCCCCCCCC(Cl)CCCCCNc1ccc(C(=O)OCC)cc1 (stereo not drawn) | 13% | <53% |  | 91% |  |  |  |  |  | 94% | 84% | 82% | 98%
20 | O=C(O)c1ccc(NCCCCCCCCCCCNc2ccc(C(=O)O)cc2)cc1 | < 30% | 84% |  | 94% |  |  |  |  |  | 87% | 85% | <68% | 99%
21 | CCCCCCCCCCCCCCC(C)Nc1ccc(C(=O)OCC)cc1 (stereo not drawn) | < 18% | <55% |  | 100% |  |  |  |  |  | 93% | <55% | 81% | 107%
22 | CCOC(=O)c1ccc(NCCCCCCCCCCCCC(C)(C)C)cc1 | 7% | 81% |  | <84% |  |  |  |  |  | <83% | 83% | 99% | <89%
23 | O=C(O)c1ccc(NCCCCCCCCCCCO)cc1 | < 30% | 78% |  | 95% |  |  |  |  |  | 99% | 101% | 111% | 93%
24 | CCOC(=O)c1ccc(NCCCCCCCCCCC(F)(F)F)cc1 | < 24% | <46% |  | 88% |  |  |  |  |  | <87% | <61% | <74% | <86%
25 | O=C(O)c1ccc(NCCCCCCCCCCCBr)cc1 | 8% | <55% |  | <86% |  |  |  |  |  | 100% | <65% | 78% | 99%
